Source: publication PMC12088962, “Design, synthesis, and biological investigation of new thiazole-based derivatives as multi-targeted inhibitors endowed with antiproliferative, antioxidant, and antibacterial properties” (Frontiers in Chemistry, 2025)
Converted amounts (≈) assume the structure as drawn.

Tests used:
in vitro = conditions: human, MCF-10A mammary gland epithelial cells (normal cell line)
A-549 cells = experiment: Antiproliferative MTT assay; conditions: for IC50: Homo sapiens, A549, read-out: Antiproliferative activity IC50 ± SEM, A-549
Excerpt: (§8) Dose-response assays determined the IC50 values for the novel compounds. We derived the reported data from a minimum of two separate experiments, each consisting of three repetitions per concentration.
Assay for antiproliferative effect

EGFR = EGFR (Homo sapiens, UniProt P00533); experiment: EGFR-TK inhibitory assay
EGFR, sequence (P00533 669-1210): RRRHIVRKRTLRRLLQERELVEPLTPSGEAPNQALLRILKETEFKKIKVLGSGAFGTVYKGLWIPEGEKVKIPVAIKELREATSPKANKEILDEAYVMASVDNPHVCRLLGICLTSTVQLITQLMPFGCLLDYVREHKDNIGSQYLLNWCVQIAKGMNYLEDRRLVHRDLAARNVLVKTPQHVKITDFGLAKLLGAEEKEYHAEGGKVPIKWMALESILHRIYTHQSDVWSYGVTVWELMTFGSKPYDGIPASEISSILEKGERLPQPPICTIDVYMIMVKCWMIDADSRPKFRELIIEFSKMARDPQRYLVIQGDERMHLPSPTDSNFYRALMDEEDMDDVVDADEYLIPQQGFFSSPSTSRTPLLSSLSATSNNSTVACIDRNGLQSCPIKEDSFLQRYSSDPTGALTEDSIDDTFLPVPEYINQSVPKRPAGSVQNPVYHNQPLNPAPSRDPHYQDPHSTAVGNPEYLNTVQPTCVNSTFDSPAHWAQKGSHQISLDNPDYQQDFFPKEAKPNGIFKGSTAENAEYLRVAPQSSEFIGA
Protocol: Baculoviral expression vectors including pBlueBacHis2B and pFASTBacHTc were used
5ʹ upstream to the EGFR sequence comprised a sequence that encoded (His)6. Sf-9 cells were infected for 72h for protein expression. The pellets of Sf-9 cells were solubilized in a buffer containing sodium vanadate (100 μM), aprotinin (10 μg/mL), triton (1%), HEPES buffer(50mM), ammonium molybdate (10 μM), benzamidine HCl (16 μg/mL), NaCl (10 mM),leupeptin (10 μg/mL) and pepstatin (10 μg/mL) at 0°C for 20 min at pH 7.4, followed by centrifugation for 20 min. To eliminate the nonspecifically bound material, a Ni-NTA super flow packed column was used to pass through and wash the crude extract supernatant first with 10mM and then with 100 mM imidazole. Histidine-linked proteins were first eluted with 250 and then with 500 mM imidazole subsequent to dialysis against NaCl (50 mM), HEPES (20 mM), glycerol (10%) and 1 μg/mL each of aprotinin, leupeptin and pepstatin for 120 min. The purification was performed either at 4 °C or on ice. To record autophosphorylation level, EGFR kinase assay was carried out on the basis of DELFIA/Time-Resolved Fluorometry. The compounds were first
dissolved in DMSO absolute, subsequent to dilution to appropriate concentration using HEPES
(25 mM) at pH 7.4. Each compound (10 μL) was incubated with recombinant enzyme (10 μL, 5
ng for EGFR, 1:80 dilution in 100 mM HEPES) for 10 min at 25 °C, subsequent to the addition of
5X buffer (10 μL, containing 2 mM MnCl2, 100 μM Na3VO4, 20 mM HEPES and 1 mM DTT)
and ATP-MgCl2 (20 μL, containing 0.1 mM ATP and 50 mM MgCl2) and incubation for 1h. The
negative and positive controls were included in each plate by the incubation of enzyme either with
or without ATP-MgCl2. The liquid was removed after incubation and the plates were washed
thrice using a wash buffer. The Europium-tagged antiphosphotyrosine antibody (75 μL, 400 ng)
(§9) was added to each well followed by incubation of 1h and then washing of the plates using buffer.
(§10) The enhancement solution was added to each well and the signal was recorded at excitation and
(§11) The autophosphorylation percentage inhibition by compounds was calculated using the following equation:
calculated. The majority of signals detected by antiphosphotyrosine antibody were from EGFR because the enzyme preparation contained low impurities.

[1] = tested on: four cancer cell lines (A-549, MCF-7, Panc-1, HT-29); experiment: Antiproliferative MTT assay, average over four cancer cell lines; conditions: for GI50: Homo sapiens, read-out: Antiproliferative activity, Average (GI50)
Excerpt: as §8
Assay for antiproliferative effect

VEGFR-2 = VEGFR-2 (Homo sapiens, UniProt P35968); experiment: VEGFR-2 inhibitory assay
VEGFR-2, sequence (P35968 20-1356): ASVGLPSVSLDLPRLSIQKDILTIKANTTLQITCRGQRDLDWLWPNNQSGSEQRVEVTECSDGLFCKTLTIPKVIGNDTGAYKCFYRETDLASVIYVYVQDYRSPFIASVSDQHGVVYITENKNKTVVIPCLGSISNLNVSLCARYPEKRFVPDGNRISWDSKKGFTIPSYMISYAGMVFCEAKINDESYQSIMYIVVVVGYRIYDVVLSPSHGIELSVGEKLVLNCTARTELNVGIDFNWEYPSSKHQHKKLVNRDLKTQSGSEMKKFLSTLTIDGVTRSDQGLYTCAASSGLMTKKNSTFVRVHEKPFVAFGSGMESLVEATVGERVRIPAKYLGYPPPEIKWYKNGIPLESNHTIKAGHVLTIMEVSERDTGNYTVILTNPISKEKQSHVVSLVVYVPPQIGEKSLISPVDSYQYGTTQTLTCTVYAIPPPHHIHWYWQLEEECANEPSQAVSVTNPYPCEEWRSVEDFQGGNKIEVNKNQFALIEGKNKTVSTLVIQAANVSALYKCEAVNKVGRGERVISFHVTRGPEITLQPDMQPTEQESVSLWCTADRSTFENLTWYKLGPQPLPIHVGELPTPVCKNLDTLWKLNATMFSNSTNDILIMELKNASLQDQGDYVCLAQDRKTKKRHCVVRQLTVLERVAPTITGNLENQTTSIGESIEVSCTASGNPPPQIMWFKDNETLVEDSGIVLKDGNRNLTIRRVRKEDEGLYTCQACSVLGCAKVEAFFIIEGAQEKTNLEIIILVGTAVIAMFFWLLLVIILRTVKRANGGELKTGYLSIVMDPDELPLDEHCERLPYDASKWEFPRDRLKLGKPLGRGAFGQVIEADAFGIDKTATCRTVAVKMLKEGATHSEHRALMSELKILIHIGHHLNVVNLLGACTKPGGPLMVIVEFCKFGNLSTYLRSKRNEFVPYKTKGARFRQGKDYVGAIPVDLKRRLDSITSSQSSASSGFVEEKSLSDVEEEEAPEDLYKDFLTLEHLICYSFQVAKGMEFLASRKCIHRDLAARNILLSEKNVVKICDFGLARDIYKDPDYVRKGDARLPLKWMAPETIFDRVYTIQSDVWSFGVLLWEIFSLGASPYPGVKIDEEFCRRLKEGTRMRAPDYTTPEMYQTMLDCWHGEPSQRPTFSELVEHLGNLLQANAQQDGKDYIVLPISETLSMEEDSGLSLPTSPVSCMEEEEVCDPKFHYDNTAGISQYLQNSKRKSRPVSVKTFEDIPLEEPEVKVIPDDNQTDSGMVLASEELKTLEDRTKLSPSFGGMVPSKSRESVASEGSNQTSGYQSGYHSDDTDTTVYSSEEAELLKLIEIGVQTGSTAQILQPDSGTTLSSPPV
Protocol: The outcomes are presented as IC50 values.
as §9, §10, §11
Prepare all the solutions using autoclaved, deionized water and analytical grade reagents.
and store all the reagents at room temperature (unless indicated otherwise).
solution, add 5 mL ultra-pure water; 1×Kinase Assay Buffer: add 25 mL HEPES solution (1 M),
water, adjust pH to 7.5 and constant volume to 500 mL using ultrapure water; 4×Stop solution (40
mM): Mix 0.8 mL of the foregoing EDTA solution, 1 mL 10×Detection Buffer and 8.2 mL ultra-
pure water; 1×Detection Buffer: Mix 1 mL 10×Detection Buffer with 9 mL water; 4×VEGFR
μM) was added to 624 μL 1×Kinase Assay Buffer and mixed; 4×ULight™-labeled JAK1
(substrate) (200 nM, 25 times diluted): 24 μL ULight™-labeled JAK1 (mother liquor
concentration 5 μM) was added to 576 μL 1×Kinase Assay Buffer and mixed; 4×ATP Solution
(40 μM, 250 times diluted): add 3 μL ATP solution (10 mM) to 747 μL 1×Kinase Assay Buffer
2×substrate/ATP Mix: 560 μL foregoing 4×ULight™-labeled JAK1 and 560 μL 4×ATP solution
and mixed (prepared before use). The assays used an ULight-labeled peptide substrate and a
Europium-W1024-labeled antiphosphotyrosine antibody. The VEGFR-2 was purchased from
Carna Biosciences, Inc. (New York, USA). The 384-well plates were obtained from PerkinElmer.
5 μL 2×VEGFR-2 kinase solution (0.5 nM)
was added to 384-well plates homogeneous mixing and pre-reaction at room temperature for 30 min. Next, 2.5 μL 4×Ultra ULightTM-JAK-1(Tyr1023) Peptide (200 nM)/ATP (40 μM) was added to the corresponding wells of a 384-well plate. Negative control: 2.5 μL/well 4×substrate/ATP mixture and 7.5 μL 1×kinase assay buffer in 384-well plate well. Positive control:
μL/well 2×VEGFR-2 kinase solution was added to the 384-well plate, The final concentration of DMSO in the mixing system was 4%. After incubation at room temperature and dark for 60 min, 5 μL 4×stop solution was added to corresponding wells to react for 5 min and then 5 μL 4×detection mix was added to the corresponding wells of a 384-well plate. The mixture was centrifugally mixed and stayed for 60 min at room temperature for color development. The plate was read using a Envision plate reader. The inhibition rate (%) = (positive well reading-compound well reading)/(positive well reading-negative well reading)×100. The corresponding IC50 values were calculated using GraphPad Prism 5.0.

MCF-7 cells = experiment: Antiproliferative MTT assay; conditions: for IC50: Homo sapiens, MCF7, read-out: Antiproliferative activity IC50 ± SEM, MCF-7
Excerpt: as §8
Assay for antiproliferative effect

E. coli DNA gyrase = E. coli DNA gyrase (Escherichia coli, UniProt P0AES6); experiment: DNA gyrase supercoiling assay; assay type: biochemical; conditions: for remaining activity at 1 µM: read-out: RA (residual activity of the enzyme), E. Coli DNA gyrase
Protocol: 4.2.3. Determination of Inhibitory Activities on E. coli DNA Gyrase.
All the final compounds were tested for E. coli DNA gyrase inhibitory activity in a supercoiling assay. Activities were determined on streptavidin -coated 96-well microtiter plates from Thermo scientific Pierce. First, the plates were rehydrated with buffer (20 mM Tris -HCl with pH 7.6, 0.01% […]
immobilized. After washing off the unbound oligonucleotide, the enzyme test was performed. The reaction volume of 30 μL in buffer (35 mM Tris-HCl with pH 7.5, 4 mM MgCl 2, 24 mM KCl, 2 […]
1.5 U of DNA gyrase from E. coli or S. aureus, 0.75 μg of relaxed pNO1 plasmid, and 3 μL solution of the inhibitor in 1 0% DMSO and 0.008% Tween 20. Reaction solutions were incubated at 37 °C […]
for 30 min. After that, the TF buffer (50 mM NaOAc with pH 5.0, 50 mM NaCl and 50 mM MgCl2) was added to terminate the enzymatic reaction. After additional incubation for 30 min at rt, during which biotin-oligonucleotide-plasmid triplex was formed, the unbound plasmid was washed off using TF buffer and SybrGOLD in T10 buffer (10 mM Tris HCl wit h pH 8.0 and 1 mM EDTA) was added. The fluorescence was measured with a microplate reader (BioTek Synergy H4, excitation: 485 nm, emission: 535 nm). […]
tested compounds. GraphPad Prism software was used to calculate the IC50 values. The result is given as the average value of three independent measurements. […]

HT-29 cells = experiment: Antiproliferative MTT assay; conditions: Homo sapiens, HT-29, read-out: Antiproliferative activity IC50 ± SEM, HT-29
Excerpt: as §8
Assay for antiproliferative effect

Panc-1 cells = experiment: Antiproliferative MTT assay; conditions: Homo sapiens, PANC-1, read-out: Antiproliferative activity IC50 ± SEM, Panc-1
Excerpt: as §8
Assay for antiproliferative effect

S. aureus = experiment: MIC by twofold serial dilution; assay type: cell-based, Staphylococcus aureus (ATCC 12600); conditions: Gram-positive; for MIC: Staphylococcus aureus, read-out: Minimum inhibitory concentration (MIC), S. aureus
Protocol: (§1) The antibacterial efficacy of compounds 11b, 11e, and 12b was evaluated against Gram-positive bacteria (S. aureus and B. subtilis) and Gram-negative bacteria (E. coli and P. aeruginosa). Table 5 presents the MICs (nM) of these compounds against the evaluated bacteria, utilizing ciprofloxacin as the reference drug, determined through a twofold serial dilution approach on a 96-well microtiter plate ([Frejat F. O. et al., 2022]).
as §1, with “The” for “Table 5 presents the”, “the tested” for “these”, “bacteria were” for “bacteria, utilizing ciprofloxacin as the reference drug,”, “2022]). See Appendix A for more details.” for “2022]).”
(§2) 4.2. Antimicrobial activity
(§3) 4.2.1. Organisms and culture conditions […]
(§4) 4.2.2. Minimum inhibitory concentration assay
(§5) In 96-well microtiter plates and […] of fresh bacterial culture of a single McFarland unit overnight, a double serial dilution of each compound […] in sterile standard saline were prepared to every single source well. Ciprofloxacin antibiotic (5 mg / mL-1) and normal saline were included as standard reference in each assay. The plates were incubated at 37 0C overnight.
(§6) As an indicator of bacterial growth, […] of p -iodonitrotetrazolium violet (INT) was added to each well and incubated at 37 0C for 30 min. MIC values are recorded as the lowest concentration […]
(§7) tetrazolidium salt acts as an electron accepter and is reduced to a red colored formazan product by biological activity organisms. Where bacterial growth was inhibited, the solution in the well remained clear after incubation with INT. […]

E. coli = experiment: MIC by twofold serial dilution; assay type: cell-based, Escherichia coli (ATCC 11775); conditions: Gram-negative; for MIC: Escherichia coli, read-out: Minimum inhibitory concentration (MIC), E. coli
Protocol: as §1
as §1, with “The” for “Table 5 presents the”, “the tested” for “these”, “bacteria were” for “bacteria, utilizing ciprofloxacin as the reference drug,”, “2022]). See Appendix A for more details.” for “2022]).”
as §2, §3, §4, §5, §6, §7

B. subtilis = experiment: MIC by twofold serial dilution; assay type: cell-based, Bacillus subtilis (ATCC 6051); conditions: for MIC: Bacillus subtilis, read-out: Minimum inhibitory concentration (MIC), B. subtilis; for MIC / Minimum inhibitory concentration (MIC), B. subtilis: Gram-positive
Protocol: as §1
as §1, with “The” for “Table 5 presents the”, “the tested” for “these”, “bacteria were” for “bacteria, utilizing ciprofloxacin as the reference drug,”, “2022]). See Appendix A for more details.” for “2022]).”
as §2, §3, §4, §5, §6, §7

P. aeruginosa = experiment: MIC by twofold serial dilution; assay type: cell-based, Pseudomonas aeuroginosa (ATCC 10145); conditions: Gram-negative; for MIC: Pseudomonas aeruginosa, read-out: Minimum inhibitory concentration (MIC), P. aeruginosa
Protocol: as §1
as §1, with “The” for “Table 5 presents the”, “the tested” for “these”, “bacteria were” for “bacteria, utilizing ciprofloxacin as the reference drug,”, “2022]). See Appendix A for more details.” for “2022]).”
as §2, §3, §4, §5, §6, §7

SMILES	viability at 96 h, 50 µM (in vitro)	IC50 (A-549 cells)	IC50 (EGFR)	GI50 [1]	IC50 (VEGFR-2)	IC50 (MCF-7 cells)	remaining activity at 1 µM (E. coli DNA gyrase)	IC50 (HT-29 cells)	IC50 (Panc-1 cells)	IC50 (E. coli DNA gyrase)	further results
Cc1nc(SCC(=O)c2cc3ccccc3oc2=O)sc1C(=O)/C=C/c1ccccc1 [Compound 11a, (E)-3-(2-((5-Cinnamoyl-4-methylthiazol-2-yl)thio)acetyl)-2H-chromen-2-one]	91%	40 ± 2 nM	93 ± 4 nM	44 nM	5200 ± 30 nM	48 ± 3 nM	72%	44 ± 3 nM	44 ± 3 nM		
Cc1nc(SCC(=O)c2cc3cc(Br)ccc3o2)sc1C(=O)/C=C/c1ccccc1 [Compound 12d, (E)-1-(2-((2-(5-Bromobenzofuran-2-yl)-2-oxoethyl)thio)-4-methylthiazol-5-yl)-3-phenylprop-2-en-1-one]	90%	45 ± 3 nM		48 nM		50 ± 3 nM	65%	48 ± 3 nM	48 ± 3 nM		Fold less effective than 11d (GI50) [1]: 1.6 fold
C#Cc1cccc(Nc2ncnc3cc(OCCOC)c(OCCOC)cc23)c1 [Erlotinib, reference compound]		30 ± 3 nM				40 ± 3 nM		30 ± 3 nM	30 ± 3 nM		
Cc1nc(SCC(=O)c2cc3cc(Br)ccc3oc2=O)sc1C(=O)/C=C/c1ccccc1 [Compound 11d, (E)-6-Bromo-3-(2-((5-cinnamoyl-4-methylthiazol-2-yl)thio)acetyl)-2H-chromen-2-one]	95%	28 ± 1 nM	76 ± 3 nM	30 nM	3600 ± 20 nM	31 ± 1 nM	54%	30 ± 1 nM	30 ± 1 nM		Fold less potent than compound 11f (GI50) [1]: 1.1 fold
O=C(O)c1cn(C2CC2)c2cc(N3CCNCC3)c(F)cc2c1=O [Ciprofloxacin, reference compound]											MIC (S. aureus): 0.03 ± 0.002 µM (≈ 0.00994 µg/mL); MIC (E. coli): 0.06 ± 0.004 µM (≈ 0.0199 µg/mL); MIC (B. subtilis): 0.01 µM (≈ 0.00331 µg/mL); Minimum inhibitory concentration (MIC), B. subtilis (B. subtilis): 0.01 ± 0.001 µM (≈ 0.00331 µg/mL); MIC (P. aeruginosa): 0.06 ± 0.004 µM (≈ 0.0199 µg/mL)
COc1ccc(/C=C/C(=O)c2sc(SCC(=O)c3cc4ccccc4o3)nc2C)cc1 [Compound 12c, (E)-1-(2-((2-(Benzofuran-2-yl)-2-oxoethyl)thio)-4-methylthiazol-5-yl)-3-(4-methoxyphenyl)prop-2-en-1-one]	91%	33 ± 2 nM	83 ± 3 nM	36 nM	4050 ± 20 nM	39 ± 2 nM	59%	37 ± 2 nM	36 ± 2 nM		
Cc1nc(SCC(=O)c2cc3ccccc3o2)sc1C(=O)/C=C/c1ccc(Cl)cc1 [Compound 12b, (E)-1-(2-((2-(Benzofuran-2-yl)-2-oxoethyl)thio)-4-methylthiazol-5-yl)-3-(4-chlorophenyl)prop-2-en-1-one]	90%	61 ± 5 nM		65 nM		68 ± 5 nM		65 ± 5 nM	64 ± 5 nM	197 ± 12 nM	MIC (S. aureus): 0.034 ± 0.002 µM (≈ 0.0154 µg/mL); MIC (E. coli): 0.062 ± 0.004 µM (≈ 0.0281 µg/mL); MIC (B. subtilis): 0.029 ± 0.001 µM (≈ 0.0132 µg/mL); MIC (P. aeruginosa): 0.064 ± 0.004 µM (≈ 0.0291 µg/mL)
COc1ccc(/C=C/C(=O)c2sc(SCC(=O)c3cc4cc(Br)ccc4oc3=O)nc2C)cc1 [Compound 11f, (E)-6-Bromo-3-(2-((5-(3-(4-methoxyphenyl)acryloyl)-4-methylthiazol-2-yl)thio)acetyl)-2H-chromen-2-one]	93%	25 ± 1 nM	71 ± 3 nM	27 nM	2900 ± 10 nM	29 ± 1 nM	71%	28 ± 1 nM	26 ± 1 nM		Fold more potent than erlotinib (IC50), A-549 (A-549 cells; A-549): 1.2 fold; Fold more active than erlotinib (GI50) ([1]; four cancer cell lines): 1.2 fold; Fold more potent than erlotinib (IC50), MCF-7 (MCF-7 cells; MCF-7): 1.4 fold
COc1ccc(/C=C/C(=O)c2sc(SCC(=O)c3cc4cc(Br)ccc4o3)nc2C)cc1 [Compound 12f, (E)-1-(2-((2-(5-Bromobenzofuran-2-yl)-2-oxoethyl)thio)-4-methylthiazol-5-yl)-3-(4-methoxyphenyl)prop-2-en-1-one]	92%	55 ± 4 nM		57 nM		59 ± 4 nM		56 ± 4 nM	56 ± 4 nM	208 ± 15 nM	Fold less potent than compound 11f (GI50) [1]: 2.1 fold; Fold less effective than compound 11b (DNA gyrase IC50) (E. coli DNA gyrase): approximately 1.2 fold
Cc1nc(SCC(=O)c2cc3ccccc3oc2=O)sc1C(=O)/C=C/c1ccc(Cl)cc1 [Compound 11b, (E)-3-(2-((5-(3-(4-Chlorophenyl)acryloyl)-4-methylthiazol-2-yl)thio)acetyl)-2H-chromen-2-one]	92%	69 ± 6 nM		71 nM		74 ± 6 nM		72 ± 6 nM	70 ± 6 nM	182 ± 13 nM	Minimum inhibitory concentration (MIC), S. aureus (S. aureus): 0.023 ± 0.001 µM (≈ 0.0111 µg/mL); MIC (S. aureus): 0.023 µM (≈ 0.0111 µg/mL); MIC (E. coli): 0.042 µM (≈ 0.0202 µg/mL); Minimum inhibitory concentration (MIC), E. coli (E. coli): 0.042 ± 0.003 µM (≈ 0.0202 µg/mL); Fold less efficient than ciprofloxacin (MIC), B. subtilis (B. subtilis): 1.8 fold; MIC (B. subtilis): 0.018 µM (≈ 0.00868 µg/mL); Minimum inhibitory concentration (MIC), B. subtilis (B. subtilis): 0.018 ± 0.001 µM (≈ 0.00868 µg/mL); Minimum inhibitory concentration (MIC), P. aeruginosa (P. aeruginosa): 0.045 ± 0.003 µM (≈ 0.0217 µg/mL); MIC (P. aeruginosa): 0.045 µM (≈ 0.0217 µg/mL); Fold less effective than novobiocin (DNA gyrase IC50) (E. coli DNA gyrase): 1.1 fold
Cc1nc(SCC(=O)c2cc3cc(Br)ccc3o2)sc1C(=O)/C=C/c1ccc(Cl)cc1 [Compound 12e, (E)-1-(2-((2-(5-bromobenzofuran-2-yl)-2-oxoethyl)thio)-4-methylthiazol-5-yl)-3-(4-chlorophenyl)prop-2-en-1-one]	94%	60 ± 5 nM		62 nM		64 ± 5 nM		62 ± 5 nM	62 ± 5 nM	217 ± 15 nM	Fold less efficient than 11e (GI50) [1]: 1.5 fold; Fold less effective than compound 11b (DNA gyrase IC50) (E. coli DNA gyrase): approximately 1.2 fold
Cc1nc(SCC(=O)c2cc3ccccc3o2)sc1C(=O)/C=C/c1ccccc1 [Compound 12a, (E)-1-(2-((2-(Benzofuran-2-yl)-2-oxoethyl)thio)-4-methylthiazol-5-yl)-3-phenylprop-2-en-1-one]	93%	65 ± 5 nM		67 nM		70 ± 5 nM	61%	66 ± 5 nM	66 ± 5 nM		
